Experiments:
Splenocyte [1] = experiment: Cytotoxicity against mouse splenocytes assessed as cell survival at 50 to 100 uM measured after 48 hrs by CCK-8 assay relative to control; assay type: functional; details: dose 50-100 µM
Jurkat [2] = experiment: Cytotoxicity against human Jurkat cells assessed as inhibition of PMA/ionomycin-induced proliferation measured after 48 hrs by MTT assay; assay type: functional, cell-based
Jurkat [3] = experiment: Cytotoxicity against human Jurkat cells assessed as cell survival at 1 to 40 uM measured after 48 hrs by MTT assay relative to control; assay type: functional; details: dose 1-40 µM
[4] = target: Protein phosphatase 3 catalytic subunit alpha (Homo sapiens) (UniProt Q08209); experiment: Inhibition of human calcineurin activity in PMA/ionomycin-induced human Jurkat cells measured after 44 hrs by Malachite green dye based fast green assay; details: dose 1-100 µM
Jurkat [5] = experiment: Cytotoxicity against human Jurkat cells assessed as cell survival at 75 to 100 uM measured after 48 hrs by MTT assay relative to control; assay type: functional; details: dose 75-100 µM
[6] = target: T1, Nuclear factor of activated T-cells, cytoplasmic 1 (Homo sapiens) (UniProt O95644); experiment: Inhibition of human NFAT-1 in human Jurkat cells assessed as decrease of PMA/ionomycin-induced NFAT dephosphorylation measured after 44 hrs by western blot assay; assay type: cell-based; details: dose 5-25 µM
T1 sequence (whole entry): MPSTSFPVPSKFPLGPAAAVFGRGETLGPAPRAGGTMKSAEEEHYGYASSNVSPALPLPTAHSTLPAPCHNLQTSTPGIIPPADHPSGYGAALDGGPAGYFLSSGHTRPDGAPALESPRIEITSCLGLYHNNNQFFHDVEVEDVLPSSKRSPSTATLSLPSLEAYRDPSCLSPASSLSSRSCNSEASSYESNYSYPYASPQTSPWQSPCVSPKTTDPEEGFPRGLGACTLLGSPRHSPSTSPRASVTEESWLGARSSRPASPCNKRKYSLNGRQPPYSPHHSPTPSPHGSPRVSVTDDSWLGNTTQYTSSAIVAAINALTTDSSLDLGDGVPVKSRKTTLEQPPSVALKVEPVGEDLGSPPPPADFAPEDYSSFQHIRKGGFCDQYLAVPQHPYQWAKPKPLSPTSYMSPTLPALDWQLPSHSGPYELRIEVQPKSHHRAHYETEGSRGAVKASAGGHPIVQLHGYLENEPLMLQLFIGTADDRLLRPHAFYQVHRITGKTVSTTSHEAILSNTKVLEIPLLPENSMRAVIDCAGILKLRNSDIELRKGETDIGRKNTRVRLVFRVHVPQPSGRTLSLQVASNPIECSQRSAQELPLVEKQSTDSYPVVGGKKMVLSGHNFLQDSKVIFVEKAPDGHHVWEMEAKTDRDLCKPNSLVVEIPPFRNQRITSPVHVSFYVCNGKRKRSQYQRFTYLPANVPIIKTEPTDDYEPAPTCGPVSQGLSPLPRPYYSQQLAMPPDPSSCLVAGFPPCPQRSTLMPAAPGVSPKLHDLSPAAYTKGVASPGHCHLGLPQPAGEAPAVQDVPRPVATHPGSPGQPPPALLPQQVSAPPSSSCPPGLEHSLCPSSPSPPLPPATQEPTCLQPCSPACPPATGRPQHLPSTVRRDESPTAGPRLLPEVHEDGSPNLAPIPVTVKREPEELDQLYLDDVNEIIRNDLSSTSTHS

[7] = target: T1, Nuclear factor of activated T-cells, cytoplasmic 1 (Homo sapiens); experiment: Inhibition of human NFAT-1 in human Jurkat cells assessed as decrease of PMA/ionomycin-induced IL-2 concentration measured after 44 hrs by western blot assay; assay type: cell-based; details: dose 5-25 µM
Splenocyte [8] = experiment: Cytotoxicity against mouse splenocytes assessed as cell survival at 1 to 30 uM measured after 48 hrs by CCK-8 assay relative to control; assay type: functional; details: dose 1-30 µM
[9] = Inhibition of calcineurin (unknown origin); parameters: species or system Homo sapiens
Splenocyte [10] = experiment: Cytotoxicity against mouse splenocytes assessed as cell survival in presence of ConA measured after 44 hrs by CCK-8 assay; assay type: functional, cell-based

Activity [4]: Dose-Dependent Effect
Activity [6]: Dose-Dependent Effect
Activity [7]: Dose-Dependent Effect
IC50 [9]: 15.1 µM
SMILES: CC1=CC(=O)CC(C)(C)[C@@]1(O)/C=C/[C@@H](C)O [BLUMENOL A]
Activity (Splenocyte [1]): <90%
Activity (Jurkat [2]): Dose-Dependent Effect
IC50 (Jurkat [2]): 20.2 µM
Activity (Jurkat [3]): >90%
Activity (Jurkat [5]): <90%
Activity (Splenocyte [8]): >90%
Activity (Splenocyte [10]): Dose-Dependent Effect
IC50 (Splenocyte [10]): 18.7 µM

From ChEMBL document CHEMBL4823283, “Vomifoliol isolated from mangrove plant Ceriops tagal inhibits the NFAT signaling pathway with CN as the target enzyme in vitro” (Bioorg Med Chem Lett, 2021)
